pIC50: −log10 of the molar value.
Key:
[1] = biological target: T1, Jarid1B (Homo sapiens, UniProt Q9UGL1); test: Jarid1B in vitro enzyme inhibition assay (TR-FRET); assay type: biochemical
T1 construct: purchased BPS Bioscience or custom made by MolecularThroughput 50121
T1 sequence (Q9UGL1 2-751): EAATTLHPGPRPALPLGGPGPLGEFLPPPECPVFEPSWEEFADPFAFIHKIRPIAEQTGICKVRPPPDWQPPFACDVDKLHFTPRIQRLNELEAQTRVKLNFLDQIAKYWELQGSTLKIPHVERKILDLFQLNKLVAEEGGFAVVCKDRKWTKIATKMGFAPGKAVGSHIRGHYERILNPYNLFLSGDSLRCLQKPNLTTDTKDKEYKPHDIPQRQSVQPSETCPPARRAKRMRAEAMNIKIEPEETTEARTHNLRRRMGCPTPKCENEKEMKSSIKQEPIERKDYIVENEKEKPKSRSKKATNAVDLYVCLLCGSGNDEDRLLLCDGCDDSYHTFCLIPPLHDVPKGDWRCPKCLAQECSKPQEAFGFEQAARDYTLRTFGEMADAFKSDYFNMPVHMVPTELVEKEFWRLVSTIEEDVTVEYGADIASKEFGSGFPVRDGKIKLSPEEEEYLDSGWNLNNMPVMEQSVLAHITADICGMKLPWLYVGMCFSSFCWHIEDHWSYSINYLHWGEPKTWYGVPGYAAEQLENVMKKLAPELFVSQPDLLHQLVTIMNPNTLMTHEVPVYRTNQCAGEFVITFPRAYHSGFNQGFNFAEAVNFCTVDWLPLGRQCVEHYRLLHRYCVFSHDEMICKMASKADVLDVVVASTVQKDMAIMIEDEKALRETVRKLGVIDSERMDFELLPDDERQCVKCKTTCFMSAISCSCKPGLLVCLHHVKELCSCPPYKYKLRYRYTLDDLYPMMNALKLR
Outline: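 Jarid1B (AA 2-751, baculovirus-expressed) at 0.8 nM with 300 nM biotin-H3K4me3 peptide and 2 μM α-ketoglutarate in HEPES pH 7.3 with ascorbate and Fe(II), 30 min at room temperature. Stopped with EDTA; H3K4me1-2 product detected by TR-FRET (665/615 ratio) and IC50 fitted from 11-point dilutions.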

[2] = biological target: T2, JMJD2C (Homo sapiens, UniProt Q9H3R0); test: JMJD2C in vitro enzyme inhibition assay (TR-FRET); assay type: biochemical
T2 construct: purchased BPS Bioscience 50105
T2 sequence (Q9H3R0 2-372): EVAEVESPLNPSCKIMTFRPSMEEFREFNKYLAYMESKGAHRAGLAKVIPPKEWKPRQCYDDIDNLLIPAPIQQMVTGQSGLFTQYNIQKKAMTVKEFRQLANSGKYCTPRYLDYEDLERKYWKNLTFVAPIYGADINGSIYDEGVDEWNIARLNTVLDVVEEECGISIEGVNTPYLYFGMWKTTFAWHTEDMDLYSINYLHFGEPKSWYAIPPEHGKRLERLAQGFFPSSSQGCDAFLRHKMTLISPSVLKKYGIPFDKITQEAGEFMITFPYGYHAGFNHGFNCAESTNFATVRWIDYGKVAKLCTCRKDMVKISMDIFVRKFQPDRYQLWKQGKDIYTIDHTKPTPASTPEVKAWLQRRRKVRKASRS
Outline: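 Baculovirus-expressed human JMJD2C (AA 2-372) at 0.3 nM demethylated 300 nM biotin-H3K9me3 peptide with 2 μM alpha-ketoglutarate in HEPES pH 7.3 containing ascorbate and Fe(II), 30 min at room temperature. EDTA-stopped product was read by TR-FRET with Eu-anti-H3K9me2 and streptavidin-APC; 665/615 ratios from 11-point dilutions gave IC50.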

Compound: Cn1cnc(-c2nccc3c(O)nc(OCC4CCOC4)nc23)c1 (centres unmarked) [Example 103, 8-(1-methyl-1H-imidazol-4-yl)-2-(oxolan-3-ylmethoxy)pyrido[3,4-d]pyrimidin-4-ol]
- pIC50 [1]: ≥ 7.00
- pIC50 [2]: ≥ 7.00

Compound: Cn1cnc(-c2nccc3c(O)nc(OCc4cccc(F)c4)nc23)c1 [Example 104, 2-[(3-fluorophenyl)methoxy]-8-(1-methyl-1H-imidazol-4-yl)pyrido[3,4-d]pyrimidin-4-ol]
- pIC50 [1]: ≥ 7.00
- pIC50 [2]: ≥ 7.00

Compound: Cn1cnc(-c2nccc3c(O)nc(OCc4ccccc4Cl)nc23)c1 [Example 105, 2-[(2-chlorophenyl)methoxy]-8-(1-methyl-1H-imidazol-4-yl)pyrido[3,4-d]pyrimidin-4-ol]
- pIC50 [1]: ≥ 7.00
- pIC50 [2]: ≥ 7.00

Compound: Cn1cnc(-c2nccc3c(O)nc(OCc4cccc(Cl)c4Cl)nc23)c1 [Example 106, 2-[(2,3-dichlorophenyl)methoxy]-8-(1-methyl-1H-imidazol-4-yl)pyrido[3,4-d]pyrimidin-4-ol]
- pIC50 [1]: ≥ 7.00
- pIC50 [2]: 6.00 to 7.00

From US10526327B2, “Histone demethylase inhibitors” (CELGENE QUANTICEL RESEARCH, INC., priority 2013, dated 2020)
